From ChEMBL document CHEMBL6153047, “Sulfilimines from a Medicinal Chemist's Perspective: Physicochemical and in Vitro Parameters Relevant for Drug Discovery” (J Med Chem, 2025)
Values after ≈ are worked out from the molar mass of the structure shown.

Experiment: Apparent permeability of compound incubated for 5 hrs by PAMPA assay
Type: ADME
Settings: not given

Row | Compound | Papp at 5 h
1 | Cc1ccc(NC(=O)c2ccc(P(C)(C)=O)cc2)cc1Nc1nccc(-c2cccnc2)n1 | 0.043 ×10⁻⁶ cm/s

Experiment: Chemical stability assessed as compound decomposition at pH 10 and 40 degreeC measured after 3 days by HPLC-UV analysis
Type: physicochemical
Settings: buffer, time 3 day, read-out: Drug degradation

Row | Compound | degraded at 72 h
2 | CC(=O)/N=S(\c1ccc(C(F)(F)F)cc1)C1CC1 (stereo not drawn) | 8%
3 | COC(=O)/N=S(\c1ccc(C(F)(F)F)cc1)C1CC1 (stereo not drawn) | 11%
4 | N#C/N=S(\c1ccc(C(F)(F)F)cc1)C1CC1 (stereo not drawn) | < 0.1%
5 | CCS(=N)c1ccc(C(F)(F)F)cc1 (stereo not drawn) | 97%
6 | Cc1ccc(S(=O)(=NC(=O)C(C)(C)C)c2ccccc2)cc1 (stereo not drawn) | 0%
7 | N=S(c1ccc(C(F)(F)F)cc1)c1cccnc1 (stereo not drawn) | 1%
8 | CCOC(=O)/C(=S(/NC(=O)C(C)(C)C)c1ccccc1)P(=O)(OCC)OCC (stereo not drawn) | < 0.5%
9 | CC(=O)/N=S(/c1ccccc1)c1ccc(C)cc1 (stereo not drawn) | 4%
10 | CC(C)(C)C(=O)/N=S(\c1ccc(C(F)(F)F)cc1)C1CC1 (stereo not drawn) | 3%

Experiment: Efflux ratio in human Caco-2 cells measured upto 2 hrs
Type: ADME, cell-based
Settings: caco-2, 2 h

Row | Compound | Ratio
11 | CC(=O)/N=S(\c1ccc(C(F)(F)F)cc1)C1CC1 (stereo not drawn) | 0.7
12 | COC(=O)/N=S(\c1ccc(C(F)(F)F)cc1)C1CC1 (stereo not drawn) | 0.8
13 | N#C/N=S(\c1ccc(C(F)(F)F)cc1)C1CC1 (stereo not drawn) | 0.7
14 | Cc1ccc(NC(=O)c2ccc(P(C)(C)=O)cc2)cc1Nc1nccc(-c2cccnc2)n1 | > 100
15 | CCS(=N)c1ccc(C(F)(F)F)cc1 (stereo not drawn) | 0.9
16 | Cc1ccc(S(=O)(=NC(=O)C(C)(C)C)c2ccccc2)cc1 (stereo not drawn) | 0.7
17 | N=S(c1ccc(C(F)(F)F)cc1)c1cccnc1 (stereo not drawn) | 0.9
18 | CCOC(=O)/C(=S(/NC(=O)C(C)(C)C)c1ccccc1)P(=O)(OCC)OCC (stereo not drawn) | 1.9
19 | CC(=O)/N=S(/c1ccccc1)c1ccc(C)cc1 (stereo not drawn) | 0.8
20 | CC(C)(C)C(=O)/N=S(\c1ccc(C(F)(F)F)cc1)C1CC1 (stereo not drawn) | 0.7

Experiment: Permeability across apical to basal side in human Caco-2 cells measured upto 2 hrs
Type: ADME, cell-based
Settings: caco-2, 2 h

Row | Compound | permeability
21 | CC(=O)/N=S(\c1ccc(C(F)(F)F)cc1)C1CC1 (stereo not drawn) | 85 10^-6 cm/s
22 | COC(=O)/N=S(\c1ccc(C(F)(F)F)cc1)C1CC1 (stereo not drawn) | 88 10^-6 cm/s
23 | N#C/N=S(\c1ccc(C(F)(F)F)cc1)C1CC1 (stereo not drawn) | 100 10^-6 cm/s
24 | Cc1ccc(S(=O)(=NC(=O)C(C)(C)C)c2ccccc2)cc1 (stereo not drawn) | 51 10^-6 cm/s
25 | N=S(c1ccc(C(F)(F)F)cc1)c1cccnc1 (stereo not drawn) | 93 10^-6 cm/s
26 | CCOC(=O)/C(=S(/NC(=O)C(C)(C)C)c1ccccc1)P(=O)(OCC)OCC (stereo not drawn) | 25 10^-6 cm/s
27 | CC(=O)/N=S(/c1ccccc1)c1ccc(C)cc1 (stereo not drawn) | 85 10^-6 cm/s
28 | CC(C)(C)C(=O)/N=S(\c1ccc(C(F)(F)F)cc1)C1CC1 (stereo not drawn) | 90 10^-6 cm/s

Experiment: Stability in human hepatocytes assessed as hepatic extraction ratio at 1 uM incubated for 6 hrs by HPLC-MS/MS analysis
Type: ADME, cell-based, Hepatocyte
Settings: read-out: ERH

Row | Compound | hepatic extraction ratio at 6 h, 1 µM
29 | CC(=O)/N=S(\c1ccc(C(F)(F)F)cc1)C1CC1 (stereo not drawn) | 0.1
30 | COC(=O)/N=S(\c1ccc(C(F)(F)F)cc1)C1CC1 (stereo not drawn) | 0.29
31 | N#C/N=S(\c1ccc(C(F)(F)F)cc1)C1CC1 (stereo not drawn) | 0.18
32 | Cc1ccc(NC(=O)c2ccc(P(C)(C)=O)cc2)cc1Nc1nccc(-c2cccnc2)n1 | < 0.04
33 | CCS(=N)c1ccc(C(F)(F)F)cc1 (stereo not drawn) | 0.17
34 | Cc1ccc(S(=O)(=NC(=O)C(C)(C)C)c2ccccc2)cc1 (stereo not drawn) | 0.33
35 | N=S(c1ccc(C(F)(F)F)cc1)c1cccnc1 (stereo not drawn) | 0.08
36 | CC(=O)/N=S(/c1ccccc1)c1ccc(C)cc1 (stereo not drawn) | 0.26
37 | CC(C)(C)C(=O)/N=S(\c1ccc(C(F)(F)F)cc1)C1CC1 (stereo not drawn) | 0.16

Experiment: Chemical stability assessed as compound decomposition at pH 4 and 40 degreeC measured after 3 days by HPLC-UV analysis
Type: physicochemical
Settings: buffer, time 3 day, read-out: Drug degradation

Row | Compound | degraded at 72 h
38 | CC(=O)/N=S(\c1ccc(C(F)(F)F)cc1)C1CC1 (stereo not drawn) | 8%
39 | COC(=O)/N=S(\c1ccc(C(F)(F)F)cc1)C1CC1 (stereo not drawn) | 10%
40 | N#C/N=S(\c1ccc(C(F)(F)F)cc1)C1CC1 (stereo not drawn) | 9%
41 | CCS(=N)c1ccc(C(F)(F)F)cc1 (stereo not drawn) | 5%
42 | Cc1ccc(S(=O)(=NC(=O)C(C)(C)C)c2ccccc2)cc1 (stereo not drawn) | 0%
43 | N=S(c1ccc(C(F)(F)F)cc1)c1cccnc1 (stereo not drawn) | 1%
44 | CCOC(=O)/C(=S(/NC(=O)C(C)(C)C)c1ccccc1)P(=O)(OCC)OCC (stereo not drawn) | < 0.5%
45 | CC(=O)/N=S(/c1ccccc1)c1ccc(C)cc1 (stereo not drawn) | 5%
46 | CC(C)(C)C(=O)/N=S(\c1ccc(C(F)(F)F)cc1)C1CC1 (stereo not drawn) | 4%

Experiment: Stability in mouse liver microsomes assessed as hepatic extraction ratio at 1 uM preincubated with compound followed by NADPH addition by LC-MS/MS analysis
Type: ADME, Microsome
Settings: read-out: ERH

Row | Compound | hepatic extraction ratio at 1 µM
47 | CC(=O)/N=S(\c1ccc(C(F)(F)F)cc1)C1CC1 (stereo not drawn) | < 0.23
48 | COC(=O)/N=S(\c1ccc(C(F)(F)F)cc1)C1CC1 (stereo not drawn) | 0.38
49 | N#C/N=S(\c1ccc(C(F)(F)F)cc1)C1CC1 (stereo not drawn) | 0.43
50 | Cc1ccc(NC(=O)c2ccc(P(C)(C)=O)cc2)cc1Nc1nccc(-c2cccnc2)n1 | 0.35
51 | CCS(=N)c1ccc(C(F)(F)F)cc1 (stereo not drawn) | < 0.23
52 | Cc1ccc(S(=O)(=NC(=O)C(C)(C)C)c2ccccc2)cc1 (stereo not drawn) | > 0.88
53 | N=S(c1ccc(C(F)(F)F)cc1)c1cccnc1 (stereo not drawn) | 0.26
54 | CCOC(=O)/C(=S(/NC(=O)C(C)(C)C)c1ccccc1)P(=O)(OCC)OCC (stereo not drawn) | 0.41
55 | CC(=O)/N=S(/c1ccccc1)c1ccc(C)cc1 (stereo not drawn) | 0.63
56 | CC(C)(C)C(=O)/N=S(\c1ccc(C(F)(F)F)cc1)C1CC1 (stereo not drawn) | 0.59

Experiment: Protein binding in human plasma at 1 uM incubated for 5 hrs by rapid equilibrium dialysis
Type: ADME, cell-free
Settings: not given

Row | Compound | PPB
57 | Cc1ccc(NC(=O)c2ccc(P(C)(C)=O)cc2)cc1Nc1nccc(-c2cccnc2)n1 | 83.8%

Experiment: Lipophilicity, logD of compound at pH 7.4 by UPLC-UV-MS analysis
Type: physicochemical
Settings: buffer

Row | Compound | logD
58 | CC(=O)/N=S(\c1ccc(C(F)(F)F)cc1)C1CC1 (stereo not drawn) | 1.7
59 | COC(=O)/N=S(\c1ccc(C(F)(F)F)cc1)C1CC1 (stereo not drawn) | 2.1
60 | N#C/N=S(\c1ccc(C(F)(F)F)cc1)C1CC1 (stereo not drawn) | 2.2
61 | Cc1ccc(NC(=O)c2ccc(P(C)(C)=O)cc2)cc1Nc1nccc(-c2cccnc2)n1 | 1.4
62 | CCS(=N)c1ccc(C(F)(F)F)cc1 (stereo not drawn) | 0.7
63 | Cc1ccc(S(=O)(=NC(=O)C(C)(C)C)c2ccccc2)cc1 (stereo not drawn) | 4.2
64 | CCOC(=O)/C(=S(/NC(=O)C(C)(C)C)c1ccccc1)P(=O)(OCC)OCC (stereo not drawn) | 3
65 | CC(=O)/N=S(/c1ccccc1)c1ccc(C)cc1 (stereo not drawn) | 2
66 | CC(C)(C)C(=O)/N=S(\c1ccc(C(F)(F)F)cc1)C1CC1 (stereo not drawn) | 3.5

Experiment: Stability in human liver microsomes assessed as hepatic extraction ratio at 1 uM preincubated with compound followed by NADPH addition by LC-MS/MS analysis
Type: ADME, Microsome
Settings: read-out: ERH

Row | Compound | hepatic extraction ratio at 1 µM
67 | CC(=O)/N=S(\c1ccc(C(F)(F)F)cc1)C1CC1 (stereo not drawn) | < 0.23
68 | COC(=O)/N=S(\c1ccc(C(F)(F)F)cc1)C1CC1 (stereo not drawn) | < 0.23
69 | N#C/N=S(\c1ccc(C(F)(F)F)cc1)C1CC1 (stereo not drawn) | < 0.23
70 | Cc1ccc(NC(=O)c2ccc(P(C)(C)=O)cc2)cc1Nc1nccc(-c2cccnc2)n1 | < 0.23
71 | CCS(=N)c1ccc(C(F)(F)F)cc1 (stereo not drawn) | < 0.23
72 | Cc1ccc(S(=O)(=NC(=O)C(C)(C)C)c2ccccc2)cc1 (stereo not drawn) | 0.61
73 | N=S(c1ccc(C(F)(F)F)cc1)c1cccnc1 (stereo not drawn) | < 0.23
74 | CCOC(=O)/C(=S(/NC(=O)C(C)(C)C)c1ccccc1)P(=O)(OCC)OCC (stereo not drawn) | > 0.23
75 | CC(=O)/N=S(/c1ccccc1)c1ccc(C)cc1 (stereo not drawn) | < 0.23
76 | CC(C)(C)C(=O)/N=S(\c1ccc(C(F)(F)F)cc1)C1CC1 (stereo not drawn) | < 0.23

Experiment: Chemical stability assessed as compound decomposition at pH 7.4 and 40 degreeC measured after 3 days by HPLC-UV analysis
Type: physicochemical
Settings: buffer, time 3 day, read-out: Drug degradation

Row | Compound | degraded at 72 h
77 | CC(=O)/N=S(\c1ccc(C(F)(F)F)cc1)C1CC1 (stereo not drawn) | 7%
78 | COC(=O)/N=S(\c1ccc(C(F)(F)F)cc1)C1CC1 (stereo not drawn) | 10%
79 | N#C/N=S(\c1ccc(C(F)(F)F)cc1)C1CC1 (stereo not drawn) | < 0.1%
80 | CCS(=N)c1ccc(C(F)(F)F)cc1 (stereo not drawn) | 13%
81 | Cc1ccc(S(=O)(=NC(=O)C(C)(C)C)c2ccccc2)cc1 (stereo not drawn) | 0%
82 | N=S(c1ccc(C(F)(F)F)cc1)c1cccnc1 (stereo not drawn) | 3%
83 | CCOC(=O)/C(=S(/NC(=O)C(C)(C)C)c1ccccc1)P(=O)(OCC)OCC (stereo not drawn) | < 0.5%
84 | CC(=O)/N=S(/c1ccccc1)c1ccc(C)cc1 (stereo not drawn) | 4%
85 | CC(C)(C)C(=O)/N=S(\c1ccc(C(F)(F)F)cc1)C1CC1 (stereo not drawn) | 4%

Experiment: Aqueous solubility of compound at pH 6.8 incubated for 24 hrs by LC-UV analysis
Type: physicochemical
Settings: buffer, pH 6.8, 24 h

Row | Compound | solubility
86 | CC(=O)/N=S(\c1ccc(C(F)(F)F)cc1)C1CC1 (stereo not drawn) | 38 µg/mL (≈ 138 µM)
87 | COC(=O)/N=S(\c1ccc(C(F)(F)F)cc1)C1CC1 (stereo not drawn) | 26 µg/mL (≈ 89.3 µM)
88 | N#C/N=S(\c1ccc(C(F)(F)F)cc1)C1CC1 (stereo not drawn) | 42 µg/mL (≈ 163 µM)
89 | Cc1ccc(NC(=O)c2ccc(P(C)(C)=O)cc2)cc1Nc1nccc(-c2cccnc2)n1 | 58 µg/mL (≈ 127 µM)
90 | Cc1ccc(S(=O)(=NC(=O)C(C)(C)C)c2ccccc2)cc1 (stereo not drawn) | < 1 µg/mL
91 | N=S(c1ccc(C(F)(F)F)cc1)c1cccnc1 (stereo not drawn) | 49 µg/mL (≈ 181 µM)
92 | CCOC(=O)/C(=S(/NC(=O)C(C)(C)C)c1ccccc1)P(=O)(OCC)OCC (stereo not drawn) | > 87 µg/mL
93 | CC(=O)/N=S(/c1ccccc1)c1ccc(C)cc1 (stereo not drawn) | > 52 µg/mL
94 | CC(C)(C)C(=O)/N=S(\c1ccc(C(F)(F)F)cc1)C1CC1 (stereo not drawn) | 51 µg/mL (≈ 161 µM)

Experiment: Chemical stability assessed as compound decomposition at pH 1 and 40 degreeC measured after 3 days by HPLC-UV analysis
Type: physicochemical
Settings: buffer, time 3 day, read-out: Drug degradation

Row | Compound | degraded at 72 h
95 | CC(=O)/N=S(\c1ccc(C(F)(F)F)cc1)C1CC1 (stereo not drawn) | 20%
96 | COC(=O)/N=S(\c1ccc(C(F)(F)F)cc1)C1CC1 (stereo not drawn) | 27%
97 | N#C/N=S(\c1ccc(C(F)(F)F)cc1)C1CC1 (stereo not drawn) | 72%
98 | CCS(=N)c1ccc(C(F)(F)F)cc1 (stereo not drawn) | 17%
99 | Cc1ccc(S(=O)(=NC(=O)C(C)(C)C)c2ccccc2)cc1 (stereo not drawn) | 16%
100 | N=S(c1ccc(C(F)(F)F)cc1)c1cccnc1 (stereo not drawn) | 4%
101 | CCOC(=O)/C(=S(/NC(=O)C(C)(C)C)c1ccccc1)P(=O)(OCC)OCC (stereo not drawn) | 57%
102 | CC(=O)/N=S(/c1ccccc1)c1ccc(C)cc1 (stereo not drawn) | 22%
103 | CC(C)(C)C(=O)/N=S(\c1ccc(C(F)(F)F)cc1)C1CC1 (stereo not drawn) | 0.9%
